These results are taken from patent US10508107B2, “Morpholine derivative” (Hoffmann-La Roche Inc., priority 2016, dated 2019).

One data set concerns the target human TAAR1 (Homo sapiens (Human), UniProt Q96RJ0). The data set is described as follows: cAMP functional assay in HEK293 cells expressing human TAAR1. The format is cell-based. Conditions: for hTAAR1 efficacy*: % agonist activity, β-phenylethylamine = 100% agonism; for EC50: cAMP, HEK293 cells expressing human TAAR1, read-out: hTAAR1 EC50. The method, then: For the construction of expression plasmids the coding sequences of human TAAR 1 were amplified from genomic DNA essentially as described by Lindemann et al.[14]. The Expand High Fidelity PCR System (Roche Diagnostics) was used with 1.5 mM Mg^2+ and purified PCR products were cloned into pCR2.1-TOPO cloning vector (Invitrogen) following the instructions of the manufacturer. PCR products were subcloned into the pIRESneo2 vector (BD Clontech, Palo Alto, Calif.), and expression vectors were sequence verified before introduction in cell lines.
HEK293 cells (ATCC # CRL-1573) were cultured essentially as described by Lindemann et al. (2005). For the generation of stably transfected cell lines HEK293 cells were transfected with the pIRESneo2 expression plasmids containing the TAAR coding sequences (described above) with Lipofectamine 2000 (Invitrogen) according to the instructions of the manufacturer, and 24 hrs post transfection the culture medium was supplemented with 1 mg/ml G418 (Sigma, Buchs, Switzerland). After a culture period of about 10 d clones were isolated, expanded and tested for responsiveness to trace amines (all compounds purchased from Sigma) with the cAMP Biotrak Enzyme immunoassay (EIA) System (Amersham) following the non-acetylation EIA procedure provided by the manufacturer.
cAMP measurements were performed as described previously (Revel et al., Proc. Natl. Acad. Sci. USA 2011, 108, 8485-8490). In brief, cells that expressed human TAAR1 were plated on 96-well plates (BIOCOAT 6640; Becton Dickinson, Allschwil, Switzerland) and incubated for 20 h at 37° C. Prior to stimulation of the cells with a broad concentration range of agonists for 30 min at 37° C., the cells were washed with PBS and preincubated with PBS that contained 1 mM 3-isobutyl-1-methylxanthine for 10 min at 37° C. and 5% CO2. Stimulation with 0.2% DMSO was set as the basal level, and the effect of 30 μM β-PEA was set as the maximal response. Subsequently, the cells were lysed, and cAMP assays were performed according to the manufacturer's instructions (cAMP kit; Upstate/Millipore, Schaffhausen, Switzerland). Finally, the plates were read with a luminometer (1420 Multilabel counter; PerkinElmer, Schwerzenbach, Switzerland), and the amount of cAMP was calculated. The results were obtained from at least three independent experiments. Experiments were run in duplicate or triplicate. EC50 values are presented as mean ±standard deviation (in μM).

A further data set has as its target hERG potassium channel (Homo sapiens (Human), UniProt Q12809). The data set is described as follows: hERG whole-cell patch-clamp in stably transfected CHO cells. Type of data set: cell-based. Conditions: for IC20: estimated based on the IC50 value; for selectivity ratio: human, CHO cells stably expressing hERG, pH 7.4, hERG IC20 / hTAAR1 EC50, read-out: hERG selectivity ratio versus hTAAR1 EC50; for IC50: patch-clamp, CHO cells, 36±1° C. The method, then: The whole-cell patch-clamp technique was used to investigate the effects of the test items on hERG (human-ether-a-go-go related gene) potassium channels in stably transfected CHO cells near physiological temperature (36±1° C.). The effects of compounds on hERG K^+-current parameters were evaluated at 4 concentrations (0.3-3-30-300 μM) in at least 3 CHO cells stably expressing the hERG channel. For electrophysiological measurements cells were seeded onto 35 mm sterile culture dishes containing 2 ml culture medium without Hygromycin B. Cells were cultivated at a density that enabled single cells (without visible connections to neighbouring cells) to be measured. Cells were incubated at 37° C. in a humidified atmosphere with 5% CO2 (rel. humidity about 95%). The cells were continuously maintained in and passaged in sterile culture flasks containing nutrient mixture F-12 (DMEM/F-12 with L-Glutamine) supplemented with 10% foetal bovine serum and 10% penicillin/streptomycin solution. […] The 35 mm culture dishes upon which cells were seeded at a density allowing single cells to be recorded were placed on the dish holder of the microscope and continuously perfused (at approximately 1 ml/min) with the bath solution (sodium chloride 150 mM, potassium chloride 4 mM, calcium chloride 1.2 mM, magnesium chloride 1 mM, HEPES 10 mM, pH (NaOH) 7.4) at near physiological temperature (36±1° C.). After formation of a Gigaohm seal between the patch electrodes and individual hERG stably transfected CHO cells (pipette resistance range: 2.0 MΩ-7.0 Mω; seal resistance range: >1 Gω) the cell membrane across the pipette tip was ruptured to assure electrical access to the cell interior (whole-cell patch-configuration). In case the quality of the seal was poor, the process of seal formation was repeated with a different cell and a new pipette. […] This voltage protocol was run at least 10 times at intervals of 10 s. If current density was judged to be too low for measurement, another cell was recorded. […] During wash-in of the test item the voltage protocol indicated above was run continuously again at 10 s intervals until the steady-state level of block was reached. The four test item concentrations of the compound were applied sequentially to 3 cells in a cumulative manner. […] Based on the IC50 value the IC20 was estimated. Each concentration of the test item was analyzed in three experiments (n=3).

For a further data set, the target named is human DAT (Homo sapiens (Human), UniProt Q01959). The data set is described as follows: Binding to dopamine transporter (DAT) in vitro, [3H]-WIN35,428 SPA. Conditions: for Ki: [3H]-WIN35,428 radioligand. The protocol:
Binding to dopamine transporter (DAT) in vitro. Human embryonic kidney (HEK) 293 cells (Invitrogen, Zug, Switzerland) stably transfected with human DAT were cultured. The cells were collected and washed three times with phosphate-buffered saline (PBS). The pellets were frozen at −80° C. The pellets were then resuspended in 400 ml of 20 mM HEPES-NaOH, pH 7.4, that contained 10 mM EDTA at 4° C. After homogenization with a Polytron (Kinematica, Lucerne,
Switzerland) at 10000 rotations per minute (rpm) for 15 s, the homogenates were centrifuged at 48000×g for 30 min at 4° C. Aliquots of the membrane stocks were frozen at −80° C. All assays were performed at least three times. The test compounds were diluted in […] of binding buffer (252 mM NaCl, 5.4 mM KCl, 20 mM Na2HPO4, 3.52 mM KH2PO4, pH 7.4) and 10 point dilution curves were made and transferred to 96-well white polystyrene assay plates (Sigma-Aldrich, Buchs, Switzerland). […] Twenty microliters of binding buffer alone in the assay plate defined the total binding, whereas binding in the presence of 10 μM indatraline defined nonspecific binding. Frozen DAT membrane stocks were thawed and resuspended to a concentration of approximately 0.04 mg protein/ml binding buffer (1:1 diluted in H2O) using a polytron tissue homogenizer. The membrane homogenates (40 μg/ml) were then lightly mixed for 5-30 min with polyvinyl toluene […] wheat germ agglutinin-coated scintillation proximity assay (WGASPA; Amersham Biosciences) beads at 7.7 mg beads/ml homogenate. One hundred thirty microliters of the membrane/bead mixture were added to each well of the assay plate that contained radioligand and test compounds (final volume in each well, 200 μl) to start the assay, which was incubated for approximately 2 h at room temperature with agitation. The assay plates were then counted in the PVT SPA counting mode of a Packard Topcount. […] Non-linear regression was used to fit the data to sigmoid curves and determine IC50 values for binding and uptake. Ki values for binding and uptake were calculated using the following Cheng-Prusoff equation: Ki=IC50/(1+[S]/Km).

human TAAR1, sequence (Q96RJ0 whole entry): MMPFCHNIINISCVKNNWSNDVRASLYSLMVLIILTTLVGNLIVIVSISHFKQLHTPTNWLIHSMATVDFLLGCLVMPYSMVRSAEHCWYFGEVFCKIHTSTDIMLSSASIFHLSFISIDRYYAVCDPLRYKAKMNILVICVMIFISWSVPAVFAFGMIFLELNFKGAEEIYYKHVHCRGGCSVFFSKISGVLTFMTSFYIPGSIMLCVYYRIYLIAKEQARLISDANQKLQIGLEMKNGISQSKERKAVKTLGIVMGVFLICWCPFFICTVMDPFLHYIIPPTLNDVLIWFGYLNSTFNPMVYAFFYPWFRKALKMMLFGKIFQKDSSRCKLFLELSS
hERG potassium channel, sequence (Q12809 whole entry): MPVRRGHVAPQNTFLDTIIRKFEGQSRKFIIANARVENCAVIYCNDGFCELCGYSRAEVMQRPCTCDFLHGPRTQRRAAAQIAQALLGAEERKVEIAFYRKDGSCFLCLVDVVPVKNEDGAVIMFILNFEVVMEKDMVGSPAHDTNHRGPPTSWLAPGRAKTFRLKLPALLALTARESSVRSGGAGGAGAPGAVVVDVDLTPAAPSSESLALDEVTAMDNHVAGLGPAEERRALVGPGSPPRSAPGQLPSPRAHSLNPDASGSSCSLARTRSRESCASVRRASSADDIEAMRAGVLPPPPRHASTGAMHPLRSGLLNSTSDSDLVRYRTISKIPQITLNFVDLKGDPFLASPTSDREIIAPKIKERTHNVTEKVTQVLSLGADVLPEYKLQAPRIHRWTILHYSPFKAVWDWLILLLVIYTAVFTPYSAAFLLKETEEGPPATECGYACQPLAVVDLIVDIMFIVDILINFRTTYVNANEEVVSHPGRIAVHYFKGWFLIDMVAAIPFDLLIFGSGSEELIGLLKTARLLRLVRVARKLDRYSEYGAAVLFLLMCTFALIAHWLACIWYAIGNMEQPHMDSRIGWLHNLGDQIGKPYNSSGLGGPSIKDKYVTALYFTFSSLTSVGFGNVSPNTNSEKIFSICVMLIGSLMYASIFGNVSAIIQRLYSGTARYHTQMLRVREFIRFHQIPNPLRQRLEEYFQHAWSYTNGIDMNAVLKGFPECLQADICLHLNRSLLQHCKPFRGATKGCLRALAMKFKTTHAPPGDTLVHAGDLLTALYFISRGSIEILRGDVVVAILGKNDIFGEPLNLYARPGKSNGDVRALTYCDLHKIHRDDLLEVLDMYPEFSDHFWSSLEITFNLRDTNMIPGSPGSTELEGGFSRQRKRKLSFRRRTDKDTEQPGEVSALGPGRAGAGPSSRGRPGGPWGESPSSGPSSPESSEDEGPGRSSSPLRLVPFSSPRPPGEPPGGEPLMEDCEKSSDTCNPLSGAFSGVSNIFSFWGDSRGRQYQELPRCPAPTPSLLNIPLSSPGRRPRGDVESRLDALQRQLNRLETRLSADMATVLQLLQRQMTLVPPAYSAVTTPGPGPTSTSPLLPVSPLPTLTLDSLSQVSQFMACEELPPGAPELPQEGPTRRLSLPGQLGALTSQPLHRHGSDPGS
human DAT, sequence (Q01959 whole entry): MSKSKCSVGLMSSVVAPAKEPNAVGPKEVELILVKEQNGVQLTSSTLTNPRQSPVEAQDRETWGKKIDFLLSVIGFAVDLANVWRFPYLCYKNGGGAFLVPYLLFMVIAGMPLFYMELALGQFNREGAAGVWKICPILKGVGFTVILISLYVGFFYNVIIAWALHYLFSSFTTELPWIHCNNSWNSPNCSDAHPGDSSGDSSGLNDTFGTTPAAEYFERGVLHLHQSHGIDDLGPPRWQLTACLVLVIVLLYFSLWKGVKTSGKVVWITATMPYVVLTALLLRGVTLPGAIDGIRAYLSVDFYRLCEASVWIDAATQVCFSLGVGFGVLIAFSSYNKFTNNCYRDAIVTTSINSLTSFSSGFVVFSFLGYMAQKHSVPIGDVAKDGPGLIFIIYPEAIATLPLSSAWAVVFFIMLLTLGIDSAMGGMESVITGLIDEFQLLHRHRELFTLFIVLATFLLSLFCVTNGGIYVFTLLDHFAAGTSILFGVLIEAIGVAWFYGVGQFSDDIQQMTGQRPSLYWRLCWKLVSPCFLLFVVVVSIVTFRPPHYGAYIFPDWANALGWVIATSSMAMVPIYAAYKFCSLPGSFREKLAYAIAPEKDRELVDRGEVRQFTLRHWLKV

As for `Cc1nc(C(=O)Nc2ccc([C@H]3CNCCO3)cc2)cs1` [Example 19, N-[4-[(2S)-Morpholin-2-yl]phenyl]2-methyl-1,3-thiazole-4-carboxamide], on human TAAR1, the “hTAAR1 efficacy*” value worked out at 32% and the EC50 (usually the concentration that produces a half-maximal response) was 1.02 µM. Besides, on hERG potassium channel, the “Ratio hERG IC20/hTAAR1 EC50” value is given as 8; the IC20 (commonly the point of the concentration-response curve where the effect stands at 20%) was 8.32 µM; the selectivity ratio is 8; the IC50 – broadly, the concentration that gives 50% inhibition – is 60.5 µM. Further, on human DAT, the “Ratio DAT Ki/hTAAR1 EC50” value turned out to be 21 and the Ki (as a rule, the equilibrium dissociation constant of an inhibitor or competing ligand from its target) is 21.9 µM.

On to `O=C(Nc1ccc([C@H]2CNCCO2)cc1)c1ccn(-c2ccccc2)n1` [Example 20, N-[4-[(2S)-Morpholin-2-yl]phenyl]-1-phenylpyrazole-3-carboxamide], for which, on human TAAR1, the “hTAAR1 efficacy*” value worked out at 59% and the EC50 is 2.48 µM. For the same compound, on hERG potassium channel, the “Ratio hERG IC20/hTAAR1 EC50” value is recorded as 1, the 20% effect concentration (IC20) is 2.49 µM, the selectivity ratio is 1 and the IC50 turned out to be 10.8 µM. Moreover, at human DAT, the “Ratio DAT Ki/hTAAR1 EC50” value is above 11 and the Ki is above 26.1 µM.
